Measurements reported in patent US6303761A, “Triaminepentaacetic acid compound and paramagnetic metal complex prepared from using the compound as ligand” (Department of Health The Executive Yuan, Republic of China, priority 1999, dated 2001).
“And” between values parts separate entries of the source, which are not always exact repeats. Equal entries are not always repeated. Where two headings read alike, the source gives them in different places. Values belong to the compound of their own block, whether it stands above or below them.

Experiments:
pM value, Cu^2+ = conditions: pH 7.4, TL 1.1×10^-5, TM 1.0×10^-6 mol dm^-3
pM value, Gd^3+ = conditions: pH 7.4, TL 1.1×10^-5, TM 1.0×10^-6 mol dm^-3
pM value, Zn^2+ = conditions: pH 7.4, TL 1.1×10^-5, TM 1.0×10^-6 mol dm^-3
pM value, Ca^2+ = conditions: pH 7.4, TL 1.1×10^-5, TM 1.0×10^-6 mol dm^-3
[1] = Inner-sphere water molecules (Dy(III)-induced ^17 O-NMR chemical shift, X-ray, deduction); type: physicochemical
Experimental: The chemical shift (d.i.s.) of the Dy(III)-induced ^17 O is determined by ^17 O-NMR. The relationship between the Dy(III) complex concentration and d.i.s. is shown in equation (14)
d.i.s.=qΔ[Dy(ligand)n ](H2 O)q /[H2 O] (14)
The slope of equation (14) is qΔ/[H2 O], and q refers to the inner-sphere water molecule. […] It is known that Dy(III) can bind with eight water molecules at low concentration, and q is in a linear relationship with the slope.

[2] = cited from earlier work; for LD50: in vivo
[3] = cited from earlier work
[4] = Thermodynamic and conditional stability constants of the Zn^2+ complexes (potentiometric titration, program BEST); type: physicochemical; conditions: 25.0 ± 0.1° C., aqueous Me4 NNO3, I = 0.10 mol dm^-3
Experimental: (§1) The pH electrode was calibrated using two standard buffer solutions with pH 7.0±0.05 and pH 4.0±0.05 respectively. The ionic strength was 0.10 mol dm^-3 Me4 NNO3 ((CH3)4 NNO3). […] The titrant used was 0.1 mol dm^-3 NaOH with a titration amount of 0.005 ml/time.
(§2) (1) Direct Potentiometric Titration: The metal ion and ligand is mixed in 1:1 molar ratio.
(§3) (2) Ligand-ligand Competition Titration: The metal ion, ligand, and EDTA is mixed in 1:1:1 molar ratio.
(§4) M: metal ion, L: organic ligand, ML: metal complex The conditional stability constant is defined by equation (2): [formula]
(§5) The relationship between the conditional stability constant and the thermodynamic stability constant is defined by equation (3): [formula]
(§6) K2^H [H^+ ]^2 + . . . }^-1 =KthermαH

[5] = Thermodynamic and conditional stability constants of the Ca^2+ complexes (potentiometric titration, program BEST); type: physicochemical; conditions: 25.0 ± 0.1° C., aqueous Me4 NNO3, I = 0.10 mol dm^-3
Experimental: as §1, §2, §3, §4, §5, §6

[6] = Thermodynamic and conditional stability constants of the Cu^2+ complexes (potentiometric titration, program BEST); type: physicochemical; conditions: 25.0 ± 0.1° C., aqueous Me4 NNO3, I = 0.10 mol dm^-3
Experimental: as §1, §2, §3, §4, §5, §6

[7] = Protonation constants of the organic ligands (potentiometric titration, program PKAS); type: physicochemical; conditions: for pKa: aqueous me4nno3, 25.0 ± 0.1° C., aqueous Me4 NNO3, I = 0.10 mol dm^-3
Experimental: The ionic strength was 0.10 mol dm^-3 Me4 NNO3 ((CH3)4 NNO3). […] The titrant used was 0.1 mol dm^-3 NaOH with a titration amount of 0.005 ml/time.

[8] = Species distribution of the ligands at various pH values (SPE, SPEPLOT); type: physicochemical; conditions: 7.0×10^-3 mol dm^-3 system
From the text: The average difference between observed and calculated -log[H^+ ] was <0.04 throughout all titrations.
When pH=7.0, the concentration of [H2 L]^3- is the maximum (97.5%). In the pH 3-5 range, the dominant species is the third protonated species [H3 L]^2-. When pH=3.7, the concentration of [H3 L]^2- is the maximum (87.75%). […] When pH=9.8, the concentration of [HL]^4- is the maximum (77.5%). In the pH 2-3 range, the dominant species is the fourth protonated species [H4 L]^-. When pH=2.3, the concentration of [H4 L]^- is the maximum (60.9%). In the pH range greater than 11, the dominant species is the deprotonated species [L]^5-.
When pH=2.7, the concentration of [H4 L]^- is the maximum (55.9%). In the pH 3.5-7 range, the dominant species is the third protonated species [H3 L]^2-. When pH=5, the concentration of [H3 L]^2- is the maximum (97.7%). In the pH 7-9 range, the dominant species is the second protonated species [H2 L]^3-. When pH=8.1, the concentration of [H2 L]^3- is the maximum (86.5%). […] When pH=9.9, the concentration of [HL]^4- is the maximum (71.6%). In the pH range greater than 12, the dominant species is the deprotonated species [L]^5-. In the pH range less than 2, the dominant species is the totally protonated species [H5 L].
When pH=2.8, the concentration of [H4 L]^- is the maximum (45.9%). In the pH 3.5-7.5 range, the dominant species is the third protonated species [H3 L]^2-. When pH=5.2, the concentration of [H3 L]^2- is the maximum (99.0%). In the pH 8-9.5 range, the dominant species is the second protonated species [H2 L]^3-. When pH=8.6, the concentration of [H2 L]^3- is the maximum (78.8%). In the pH 9.5-11 range, the dominant species is the first protonated species [HL]^4-. When pH=10.1, the concentration of [HL]^4- is the maximum (67.2%). In the pH range greater than 12, the dominant species is the deprotonated species [L]^5-. In the pH range less than 2, the dominant species is the totally protonated species [H5 L].

[9] = type: physicochemical; conditions: pH 7.4, plasma concentrations of Ca^2+, Cu^2+ and Zn^2+
[10] = Selectivity constant of the ligand for Gd^3+ over Ca^2+; type: physicochemical
[11] = Relaxivity R1 and its pH dependence; conditions: pH 6.3 ± 0.1
[12] = read-out: first protonation constant log K1^H, [HL]/[L][H]
[13] = read-out: fourth protonation constant log K4^H, [H4 L]/[H3 L][H]
[14] = read-out: second protonation constant log K2^H, [H2 L]/[HL][H]
[15] = read-out: third protonation constant log K3^H, [H3 L]/[H2 L][H]
[16] = 25.0 ± 0.1° C., aqueous Me4 NNO3, I = 0.10 mol dm^-3

Compound: O=C(O)CN(CCN(CC(=O)O)CC(=O)O)CCN(CC(=O)O)CC(=O)O [DTPA, diethylenetriaminepentaacetic acid, reference compound]
- pM (Cu^2+) (pM value, Cu^2+): 16.06
- pM (Gd^3+) (pM value, Gd^3+): 17.14
- conditional stability constant log KGdL' (pH 7.4): 18.14
- pM (Zn^2+) (pM value, Zn^2+): 13.39
- pM (Ca^2+) (pM value, Ca^2+): 5.45

- slope of d.i.s. versus Dy(III) complex concentration ([1]; ^17 O-NMR, FIG. 11): -445.6
Compound: [Cl][Dy]([Cl])[Cl] [DyCl3]

Compound: [Cl][Gd]([Cl])[Cl] [GdCl3, gadolinium chloride]
- LD50, intravenous, animal ([2]; intravenously injected to animal bodies): 0.3 to 0.5 mmol/kg

Compound: O=C(O)CN1CCCN(CC(=O)O)CCN(CC(=O)O)CCN(CC(=O)O)CCN(CC(=O)O)CCCN(CC(=O)O)CCN(CC(=O)O)CCN(CC(=O)O)CC1 [H8 HEC, 1,4,7,10,14,17,20,23-octaazacyclohexacosane-1,4,7,10,14,17,20,23-octaacetic acid]
- water solubility of the bimetallic lanthanide complex [3]: higher water solubility

Compound: O=C(O)CN1CCN(CC(=O)O)CCN(CC(=O)O)CCN(CC(=O)O)CCN(CC(=O)O)CCN(CC(=O)O)CCN(CC(=O)O)CCN(CC(=O)O)CC1 [H8 OTEC, 1,4,7,10,13,16,19,22-octaazacyclotetracosane-1,4,7,10,13,16,19,22-octaacetic acid]
- water solubility of the bimetallic lanthanide complex [3]: higher water solubility

- pM (Cu^2+) (pM value, Cu^2+): 12.63
- log K [ZnHL]/[ZnL][H] [4]: 4.7
- log K [ZnL]/[Zn][L] [4]: 19.91
- log K [CaHL]/[CaL][H] [5]: 8.2
- log K [CaL]/[Ca][L] [5]: 13.48
- log K [CuHL]/[CuL][H] [6]: 9.5
- log K [CuL]/[Cu][L] [6]: 17.33
- basicity, Σ PKa [7]: 30.90
- pKa [7, 12]: 10.7
- pKa [7, 13]: 3.04
- pKa [7, 14]: 9.46
- pKa [7, 15]: 7.71
- pM (Zn^2+) (pM value, Zn^2+): 13.08
- pM (Ca^2+) (pM value, Ca^2+): 7.64
- maximum concentration of first protonated species [HL]^4- [8]: 67.2%
- maximum concentration of fourth protonated species [H4 L]^- [8]: 45.9%
- maximum concentration of second protonated species [H2 L]^3- [8]: 78.8%
- maximum concentration of third protonated species [H3 L]^2- [8]: 99.0%
- pH of maximum concentration of [H2 L]^3- [8]: 8.6 pH
- pH of maximum concentration of [H3 L]^2- [8]: 5.2 pH
- pH of maximum concentration of [H4 L]^- [8]: 2.8 pH
- pH of maximum concentration of [HL]^4- [8]: 10.1 pH
- pH range in which [H2 L]^3- is dominant [8]: 8-9.5 pH
- pH range in which [H3 L]^2- is dominant [8]: 3.5-7.5 pH
- pH range in which [H4 L]^- is dominant [8]: 2.5-3.5 pH
- pH range in which [HL]^4- is dominant [8]: 9.5-11 pH
- pH range in which deprotonated species [L]^5- is dominant [8]: greater than 12 pH
- pH range in which totally protonated species [H5 L] is dominant [8]: less than 2 pH
Compound: O=C(O)CN(CCCCN(CC(=O)O)CC(=O)O)CCCN(CC(=O)O)CC(=O)O [TTEA, 3,7,12-tri(carboxymethyl)-3,7,12-triazatetradecanedioic acid]
- complexation with metal ions, in words: very difficult to complex with metal ions

Compound: O=C(O)CN(CCCN(CC(=O)O)CC(=O)O)CCCN(CC(=O)O)CC(=O)O [TTRA, 3,7,11-tri(carboxymethyl)-3,7,11-triazatridecanedioic acid]
- pM (Cu^2+) (pM value, Cu^2+): 13.12
- log K [ZnHL]/[ZnL][H] [4]: 4.15
- log K [ZnL]/[Zn][L] [4]: 19.37
- log K [CaHL]/[CaL][H] [5]: 8.02
- log K [CaL]/[Ca][L] [5]: 13.52
- pM (Gd^3+) (pM value, Gd^3+): 9.80
- log K [CuHL]/[CuL][H] [6]: 8.68
- log K [CuL]/[Cu][L] [6]: 17.92
- log K [GdHL]/[GdL][H] [16]: 5.95
- log K [GdL]/[Gd][L] [16]: 15.89
- conditional stability constant log KGdL' (pH 7.4): 10.93
- basicity, Σ PKa [7]: 29.85
- pKa [7, 12]: 10.6
- pKa [7, 13]: 3.1
- pKa [7, 14]: 9.12
- pKa [7, 15]: 7
- pM (Zn^2+) (pM value, Zn^2+): 13.67
- pM (Ca^2+) (pM value, Ca^2+): 8.20
- maximum concentration of first protonated species [HL]^4- [8]: 71.6%
- maximum concentration of fourth protonated species [H4 L]^- [8]: 55.9%
- maximum concentration of second protonated species [H2 L]^3- [8]: 86.5%
- maximum concentration of third protonated species [H3 L]^2- [8]: 97.7%
- pH of maximum concentration of [H2 L]^3- [8]: 8.1 pH
- pH of maximum concentration of [H3 L]^2- [8]: 5 pH
- pH of maximum concentration of [H4 L]^- [8]: 2.7 pH
- pH of maximum concentration of [HL]^4- [8]: 9.9 pH
- pH range in which [H2 L]^3- is dominant [8]: 7-9 pH
- pH range in which [H3 L]^2- is dominant [8]: 3.5-7 pH
- pH range in which [H4 L]^- is dominant [8]: 2-3.5 pH
- pH range in which [HL]^4- is dominant [8]: 9.5-10.5 pH
- pH range in which deprotonated species [L]^5- is dominant [8]: greater than 12 pH
- pH range in which totally protonated species [H5 L] is dominant [8]: less than 2 pH
- modified selectivity constant log K sel' [9]: 2.64
- selectivity constant log K(Gd/Ca) [10]: 2.37

- q (inner-sphere water) ([1]; Dy(III)-induced ^17 O-NMR shift): 0.8
- inner-sphere water molecules ([1]; ^17 O-NMR): only one
Compound: O=C([O-])CN1CCN(CC(=O)[O-])CCN(CC(=O)[O-])CCN(CC(=O)[O-])CC1.[Dy+3] [[Dy(DOTA)]^-]

Compound: CNC(=O)CN(CCN(CCN(CC(=O)[O-])CC(=O)NC)CC(=O)[O-])CC(=O)[O-].[Gd+3] [[Gd(DTPA-BMA)], diethylenetriamine pentaacetic acid bis(methylamide)-gadolinium(III)]
- LD50 [2]: 14.8 mmol/kg
- conditional stability constant (log Kcond) (pH 4.0): 11.25
- stability constant under physiological conditions (pH 7.4) (pH 7.4): 16.95
- inner-sphere water molecule by X-ray single crystal analysis ([1]; X-ray single crystal analysis): one
- Relaxivity R1 [11]: 3.74 dm^3 mmol^-1 s^-1 and 3.74 ± 0.05 dm^3 mmol^-1 s^-1
- modified selectivity constant log K sel' [9]: 9.03

Compound: N,N-bis(2-pyridylmethyl)diethylenetriamine-N,N',N"-triacetate-gadolinium(III) [[Gd(DTPA-BP)]]
- LD50 [2]: 3.2 mmol/kg
